According to ChEMBL document CHEMBL1201862, “PubChem BioAssay data set” (2004):
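Method: 48-hour compound exposure of cells in 96-well plates, five concentrations, linear interpolation of endpoints. Abbreviation: GI50, concentration required for 50% inhibition of growth.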 Active and inactive are the calls of the source. Rule as the data show it: active = GI50 up to about 1.1 µM and inactive = higher.

What was measured:
Assay in all cases: NCI tumour cell line growth inhibition, 48 h
[1] = tested on: TK-10
[2] = tested on: 786-0
[3] = tested on: UO-31
[4] = tested on: SK-MEL-5
[5] = tested on: DU-145
[6] = tested on: HT-29
[7] = tested on: ACHN
[8] = tested on: OVCAR-3
[9] = tested on: UACC-62
[10] = tested on: K562
[11] = tested on: T47D
[12] = tested on: SNB-75
[13] = tested on: A549
[14] = tested on: UACC-257
[15] = tested on: CCRF-CEM
[16] = tested on: NCI-H460
[17] = tested on: PC-3
[18] = tested on: MCF7
[19] = tested on: MOLT-4
[20] = tested on: Malme-3M

`CN1N=C(c2ccncc2)OC1c1ccc(C(F)(F)F)cc1` (stereo not drawn) was tested, and the GI50 [1] was > 100 µM (inactive), the GI50 [2] was 98.4 µM (inactive) and the GI50 [3] was > 100 µM (inactive). The GI50 [4] was > 100 µM (inactive), the GI50 [5] was > 100 µM (inactive) and the GI50 [6] was > 100 µM (inactive). For the same compound, the GI50 [7] was > 100 µM (inactive), the GI50 [8] was > 100 µM (inactive) and the GI50 [9] was > 100 µM (inactive). The GI50 [10] was > 100 µM (inactive), the GI50 [11] was 0.495 µM (active) and the GI50 [12] was 0.491 µM (active). For the same compound, the GI50 [13] was > 100 µM (inactive), the GI50 [14] was > 100 µM (inactive) and the GI50 [15] was > 100 µM (inactive). The GI50 [16] was > 100 µM (inactive), the GI50 [17] was > 100 µM (inactive) and the GI50 [18] was > 100 µM (inactive). For the same compound, the GI50 [19] was > 100 µM (inactive).
With `O=c1n(-c2ccccc2)c(=O)n2n1C1C=CC2CCCCCC1` the GI50 [1] was > 100 µM (inactive), the GI50 [2] was > 100 µM (inactive) and the GI50 [3] was > 100 µM (inactive). The GI50 [4] was > 100 µM (inactive), the GI50 [5] was > 100 µM (inactive) and the GI50 [6] was > 100 µM (inactive). The GI50 [7] was > 100 µM (inactive), the GI50 [8] was 4.99 µM (inactive) and the GI50 [20] was > 100 µM (inactive). For the same compound, the GI50 [9] was > 100 µM (inactive), the GI50 [11] was > 100 µM (inactive) and the GI50 [12] was > 100 µM (inactive). For the same compound, the GI50 [13] was > 100 µM (inactive), the GI50 [14] was > 100 µM (inactive) and the GI50 [15] was > 100 µM (inactive). The GI50 [16] was > 100 µM (inactive), the GI50 [17] was > 100 µM (inactive) and the GI50 [18] was > 100 µM (inactive). For the same compound, the GI50 [19] was > 100 µM (inactive).
For `O=S(=O)(O)CCSSCCS(=O)(=O)O`, the GI50 [1] was > 1000 µM (inactive), the GI50 [2] was > 1000 µM (inactive) and the GI50 [3] was > 1000 µM (inactive). For the same compound, the GI50 [5] was > 1000 µM (inactive), the GI50 [6] was > 1000 µM (inactive) and the GI50 [7] was > 1000 µM (inactive). The GI50 [8] was > 1000 µM (inactive), the GI50 [20] was > 1000 µM (inactive) and the GI50 [9] was > 1000 µM (inactive). The GI50 [10] was > 1000 µM (inactive), the GI50 [11] was > 1000 µM (inactive) and the GI50 [12] was > 1000 µM (inactive). For the same compound, the GI50 [13] was > 1000 µM (inactive), the GI50 [14] was > 1000 µM (inactive) and the GI50 [15] was > 1000 µM (inactive). The GI50 [16] was > 1000 µM (inactive), the GI50 [17] was > 1000 µM (inactive) and the GI50 [18] was > 1000 µM (inactive). The GI50 [19] was > 1000 µM (inactive).
With `COc1ccc(/C=N/NC(=O)c2ccc(O)c(CN(C)C)c2)cc1` the GI50 [1] was > 100 µM (inactive), the GI50 [2] was > 100 µM (inactive) and the GI50 [3] was > 100 µM (inactive). For the same compound, the GI50 [4] was > 100 µM (inactive), the GI50 [5] was > 100 µM (inactive) and the GI50 [6] was > 100 µM (inactive). For the same compound, the GI50 [7] was > 100 µM (inactive), the GI50 [8] was > 100 µM (inactive) and the GI50 [20] was > 100 µM (inactive). The GI50 [9] was > 100 µM (inactive), the GI50 [10] was > 100 µM (inactive) and the GI50 [11] was > 100 µM (inactive). For the same compound, the GI50 [13] was > 100 µM (inactive), the GI50 [14] was > 100 µM (inactive) and the GI50 [15] was > 100 µM (inactive). For the same compound, the GI50 [16] was > 100 µM (inactive), the GI50 [17] was > 100 µM (inactive) and the GI50 [18] was > 100 µM (inactive). For the same compound, the GI50 [19] was > 100 µM (inactive).
In the case of `CCC1(O)CC(CCN(Cc2ccccc2)C(=O)OCc2ccccc2)C(OCc2ccccc2)C1O` (stereo not drawn), the GI50 [1] was 16.5 µM (inactive), the GI50 [2] was 17.2 µM (inactive) and the GI50 [3] was 16.2 µM (inactive). For the same compound, the GI50 [4] was 15.1 µM (inactive), the GI50 [5] was 18.5 µM (inactive) and the GI50 [6] was 15.3 µM (inactive). The GI50 [7] was 17 µM (inactive), the GI50 [8] was 13 µM (inactive) and the GI50 [9] was 12.9 µM (inactive). For the same compound, the GI50 [10] was 4.69 µM (inactive), the GI50 [11] was 12.2 µM (inactive) and the GI50 [12] was 12.5 µM (inactive). For the same compound, the GI50 [13] was 9.93 µM (inactive), the GI50 [14] was 16.1 µM (inactive) and the GI50 [15] was 16.1 µM (inactive). For the same compound, the GI50 [16] was 13.4 µM (inactive), the GI50 [17] was 10.7 µM (inactive) and the GI50 [18] was 6.38 µM (inactive). The GI50 [19] was 1.93 µM (inactive).
For `CSc1ccc(-c2cc(-c3nc4ccccc4[nH]3)nc3[nH]c(-c4nc5ccccc5[nH]4)cc(=O)c23)cc1`, the GI50 [1] was > 100 µM (inactive), the GI50 [2] was > 100 µM (inactive) and the GI50 [3] was > 100 µM (inactive). The GI50 [5] was > 100 µM (inactive), the GI50 [6] was 68.5 µM (inactive) and the GI50 [7] was 29.4 µM (inactive). The GI50 [8] was > 100 µM (inactive), the GI50 [20] was > 100 µM (inactive) and the GI50 [9] was 92.5 µM (inactive). For the same compound, the GI50 [10] was 42 µM (inactive), the GI50 [11] was 95.1 µM (inactive) and the GI50 [12] was 56.2 µM (inactive). The GI50 [13] was > 100 µM (inactive), the GI50 [14] was > 100 µM (inactive) and the GI50 [15] was 73.6 µM (inactive). For the same compound, the GI50 [16] was 52.1 µM (inactive), the GI50 [17] was > 100 µM (inactive) and the GI50 [18] was 34 µM (inactive). For the same compound, the GI50 [19] was > 100 µM (inactive).
In the case of `C=C1C(O)CC[C@]2(C)C1C1OC(C)(C)O[C@]13CC(=O)C(C)=C([C@H]1OC(C)(C)OC12)C3(C)C` (stereo partly drawn), the GI50 [1] was > 100 µM (inactive), the GI50 [2] was > 100 µM (inactive) and the GI50 [3] was > 100 µM (inactive). For the same compound, the GI50 [4] was > 100 µM (inactive), the GI50 [5] was > 100 µM (inactive) and the GI50 [6] was > 100 µM (inactive). For the same compound, the GI50 [7] was 92 µM (inactive), the GI50 [8] was > 100 µM (inactive) and the GI50 [20] was > 100 µM (inactive). The GI50 [9] was > 100 µM (inactive), the GI50 [10] was 90.2 µM (inactive) and the GI50 [11] was 47.9 µM (inactive). The GI50 [12] was > 100 µM (inactive), the GI50 [13] was > 100 µM (inactive) and the GI50 [14] was > 100 µM (inactive). For the same compound, the GI50 [15] was > 100 µM (inactive), the GI50 [16] was > 100 µM (inactive) and the GI50 [18] was 65.8 µM (inactive). For the same compound, the GI50 [19] was 58.6 µM (inactive).
